Source: US10302644B2, “Compositions and methods for treating multiple myeloma” (Dana-Farber Cancer Institute, Inc., priority 2014, dated 2019)

What was measured:
Assay type in all cases: cell-based
[1] = system: LC3-II, Bim, PARP, MDM2, XIAP, cIAP, p-p70S6K; assay: Immunoblotting/qPCR of autophagy and apoptosis proteins in MM cells; details: dose-dependent
Procedure: (§1) MM cells were harvested and lysed using RIPA-lysis buffer (Boston Bioproducts, Ashland, Mass.) containing 5 mM EDTA, 5 mM NaF, 2 mM Na3VO4, 1 mM PMSF, 5 μg/ml leupeptin, and 5 μg/ml aprotinin. Nuclear proteins were extracted using “Nuclear Extraction Kit” (Affimetrix). After the determination of protein concentration using DC protein assay (Bio-Rad, Hercules, Calif.), β-mercaptoethanol (-ME) was added to the whole-cell lysates to a 2% final concentration. The whole cell lysates or nuclear extracts were subjected to SDS-PAGE, transferred to nitrocellulose membranes (Bio-Rad, Hercules, Calif.) or polyvinylidene fluoride membranes (Millipore, Billerica, Mass.), and immunoblotted with indicated Abs. Silver staining was carried out using “SilverQuest Staining Kit®” (Invitrogen), according to manufacturer's protocol.
(§2) RNA was extracted using Trizol (Invitrogen) and quantified by a Nanodrop spectrophotometer (Labtech). Specifically, 5×10^6 cells were pelleted, washed with cold PBS, and resuspended in 1 mL Trizol. They were then incubated with 1-Bromo-3-chloropropane (Sigma), washed first with Isopropyl alcohol and then with 75% Ethanol, and resuspended in Nuclease Free-water (Invitrogen). After quantification, 2000 ng of RNA was used to synthesize cDNA via the Superscript II First strand synthesis Kit (Invitrogen), according to the manufacturer's instructions. To evaluate the expression levels of TP53RK, BCL2L11, MYC, Bim, E2F1, TP53, IKZF1, IKZF3, RRM1, p18CDKN2C, PSMB5, PSMB7, PSMA3 and GAPDH, quantitative real time PCR (QRT-PCR) was performed using SYBR GREEN PCR Master Mix (Applied Biosystem), after optimization of the primer conditions. cDNAs were diluted 1:100 or 1:1000 and amplified in a 20 μL reaction. Primers were used at 200 nM or 400 nM concentration. Thermal cycling conditions were: 10 minutes at 95° C., 40 cycles at 95° C. for 15 seconds, followed by 1 minute at 60° C. Real-time quantitative PCR was performed on ABI Prism 7300 Sequence Detection System (Applied Biosystems). Data were analyzed using the delta delta Ct method. GAPDH was used as an invariant control.

p53 = assay: Immunoblotting of p53 and phosphorylated p53 in MM cells; details: MM.1S cells
Procedure: as §1

TP53RK, CRBN = assay: TP53RK and CRBN expression in MM cells (immunoblotting, qPCR); details: MM.1S cells, 48 h
Procedure: as §1, §2
pLKO.1-based shRNA vectors were obtained from the RNAi Consortium (Broad Institute). […] After 24 h of infection, cells expressing shRNA were selected with puromycin dihydrochloride (Sigma-Aldrich) at 1-2 μg/ml for 48 h, and then examined for proliferation and/or subjected to immunoblotting analysis. For siRNA transfection, scrambled, TP53RK, CRBN, p53, c-Myc and RRM1 siRNAs were purchased from Thermo Scientific (Lafayette, Colo.). siRNA transfection was carried out by Amaxa electroporation system using “Cell Line Nucleofector® Kit V or C” solution (Lonza, Koln, Germany).

MM cells = assay: Growth inhibition assay (MTT) / viable cell count (Trypan-blue); details: H929 cells, TP53RK siRNA then BTZ 3 nM 24 h, MTT
Procedure: Cell growth was assessed by measuring 3-(4,5-dimethylthiazol-2-yl)-2,5-diphenyl […] bromide (MTT, Chemicon International, Temecula, Calif.) dye absorbance. Cells were pulsed with 10 μl of 5 mg/ml MTT to each well for the last 4 h of 48 h and/or 72 h cultures, followed by 100 μl isopropanol containing 0.04N HCl. Absorbance was measured at 570/630 nm using a spectrophotometer (Molecular Devices Corp., Sunnyvale Calif.).

## CCOc1ccc(C(Nc2ccccn2)c2ccc3ccc(C)nc3c2O)cc1C (centres unmarked) [HLM006474]
[1]
  IMiDs-induced Bim upregulation: blocked

## O=C1CCC(N2C(=O)c3ccccc3C2=O)C(=O)N1 (centres unmarked) [Thal, Thalidomide]
p53; 48 h
  downstream p-p53 level: not
TP53RK, CRBN
  TP53RK level: not

## CCc1cc(C(N)=O)ccc1-n1nc(C(C)C)c2c(-n3cnc(-c4cnn(C)c4)c3)ccnc21 [TAS-116]
p53
  p-p53 modulation on Akt inhibition: in neither case was p-p53 modulation observed

## CC(C)C[C@H](NC(=O)[C@H](Cc1ccccc1)NC(=O)c1cnccn1)B(O)O [bortezomib]
MM cells
  cytotoxicity induced by bortezomib after TP53RK knockdown: further enhanced
